This note sets out measurements from US5565440A, “Methane diphosphonic acid derivative, its production process and its pharmaceutical applications” (Toray Industries, Inc., priority 1992, dated 1996).

The subject of this assay is adjuvant arthritis. As to the kind of experiment: Adjuvant Arthritis Test. The assay is classed as in vivo, Lewis female rats. The following applies: 8th to 21st day; for Swelling inhibition rate with respect to control group, 14th day, Left / Swelling inhibition rate with respect to control group, 21st day, Left: left hind limb (adjuvant-injected); for Swelling inhibition rate with respect to control group, 14th day, Right / Swelling inhibition rate with respect to control group, 21st day, Right: right hind limb; for Bone destruction inhibition rate with respect to control group: soft X-ray score, 22nd day.

Regarding `COc1cccc2c1SCCC2CC(O)(P(=O)(O)O)P(=O)(O)O` (centres unmarked) [Example 12], where the note is “3 mg/kg s.c. daily”, the “Swelling inhibition rate with respect to control group, 14th day, Left” value (“Swelling inhibition rate … 14th day, Left” below) amounted to 35.4%; the “Swelling inhibition rate with respect to control group, 21st day, Left” value (shortened to “Swelling inhibition rate … 21st day, Left”) is given as 60.1%; the “Swelling inhibition rate with respect to control group, 14th day, Right” value (“Swelling inhibition rate … 14th day, Right” for short) was found to be 0.2%; the “Swelling inhibition rate with respect to control group, 21st day, Right” value (“Swelling inhibition rate … 21st day, Right” for short) was found to be 24.2%. Besides, the “Bone destruction inhibition rate with respect to control group” value (“Bone destruction inhibition rate” for short) (3 mg/kg s.c. daily) is recorded as 26.2%.

Consider `CC1(C)CC(CC(O)(P(=O)(O)O)P(=O)(O)O)c2ccccc2S1` (centres unmarked) [Example 2, Monosodium 2-[4-(2,2-dimethylthiochromanyl)]-1-hydroxyethane-1,1-diphosphonate], for which, where the note is “20 mg/kg s.c. daily”, the “Swelling inhibition rate … 14th day, Left” value came to 59.6%; the “Swelling inhibition rate … 21st day, Left” value is given as 75.3%; the “Swelling inhibition rate … 14th day, Right” value turned out to be 8.0%; the “Swelling inhibition rate … 21st day, Right” value was determined as 16.5%. Further, for the setting “20 mg/kg s.c. daily”, the “Bone destruction inhibition rate” value is 80.4%.

As for `O=P(O)(O)C(O)(CC1CCSc2ccc(Cl)cc21)P(=O)(O)O` (centres unmarked) [Example 4, Monosodium 2-[4-(6-chlorothiochromanyl)]-1-hydroxyethane-1,1-diphosphonate], where the note is “3 mg/kg s.c. daily”, the “Swelling inhibition rate … 14th day, Left” value is 55.5%; the “Swelling inhibition rate … 21st day, Left” value came out at 93.0%; the “Swelling inhibition rate … 14th day, Right” value is listed as 32.4%; the “Swelling inhibition rate … 21st day, Right” value is on record as 37.7%. Besides, the “Bone destruction inhibition rate” value (3 mg/kg s.c. daily) was found to be 52.7%.

Turning to `CSc1cccc2c1SCCC2CC(O)(P(=O)(O)O)P(=O)(O)O` (centres unmarked) [Example 14, Disodium 2-[4-(8-methylthiothiochromanyl)]-1-hydroxyethane-1,1-diphosphonate], under “3 mg/kg s.c. daily”, the “Swelling inhibition rate … 14th day, Left” value is on record as 53.9%; the “Swelling inhibition rate … 21st day, Left” value is 80.0%; the “Swelling inhibition rate … 14th day, Right” value was 2.9%; the “Swelling inhibition rate … 21st day, Right” value is reported as 31.0%. Also, the “Bone destruction inhibition rate” value (3 mg/kg s.c. daily) is on record as 46.9%.

Consider `O=P(O)(O)C(O)(CC1CCSc2ccccc21)P(=O)(O)O` (centres unmarked) [Example 6, Monosodium 2-(4-thiochromanyl)-1-hydroxyethane-1,1-diphosphonate], for which, for the setting “3 mg/kg s.c. daily”, the “Swelling inhibition rate … 14th day, Left” value is on record as 26.1%; the “Swelling inhibition rate … 21st day, Left” value was 62.0%; the “Swelling inhibition rate … 14th day, Right” value worked out at 27.2%; the “Swelling inhibition rate … 21st day, Right” value came to 35.9%. In addition, the “Bone destruction inhibition rate” value (3 mg/kg s.c. daily) is reported as 38.5%.

As to `O=P(O)(O)C(O)(CC1CCSc2c(Cl)cccc21)P(=O)(O)O` (centres unmarked) [Example 8], under “3 mg/kg s.c. daily”, the “Swelling inhibition rate … 14th day, Left” value is reported as 52.6%; the “Swelling inhibition rate … 21st day, Left” value was 84.1%; the “Swelling inhibition rate … 14th day, Right” value stood at 0.1%; the “Swelling inhibition rate … 21st day, Right” value turned out to be 37.5%. Besides, for the setting “3 mg/kg s.c. daily”, the “Bone destruction inhibition rate” value is on record as 52.3%.

In the case of `CCc1cccc2c1SCCC2CC(O)(P(=O)(O)O)P(=O)(O)O` (centres unmarked) [Example 10, Disodium 2-[4-(8-ethylthiochromanyl)]-1-hydroxyethane-1,1-diphosphonate], for the setting “3 mg/kg s.c. daily”, the “Swelling inhibition rate … 14th day, Left” value is on record as 38.1%; the “Swelling inhibition rate … 21st day, Left” value is 62.5%; the “Swelling inhibition rate … 14th day, Right” value is listed as 19.5%; the “Swelling inhibition rate … 21st day, Right” value is recorded as 33.9%. The “Bone destruction inhibition rate” value (3 mg/kg s.c. daily) is on record as 23.9%.
